Molecular target: T1, human DP2 receptor (Homo sapiens, UniProt Q9Y5Y4)
T1 construct: expressed in transfected cells
T1 sequence (Q9Y5Y4 1-395): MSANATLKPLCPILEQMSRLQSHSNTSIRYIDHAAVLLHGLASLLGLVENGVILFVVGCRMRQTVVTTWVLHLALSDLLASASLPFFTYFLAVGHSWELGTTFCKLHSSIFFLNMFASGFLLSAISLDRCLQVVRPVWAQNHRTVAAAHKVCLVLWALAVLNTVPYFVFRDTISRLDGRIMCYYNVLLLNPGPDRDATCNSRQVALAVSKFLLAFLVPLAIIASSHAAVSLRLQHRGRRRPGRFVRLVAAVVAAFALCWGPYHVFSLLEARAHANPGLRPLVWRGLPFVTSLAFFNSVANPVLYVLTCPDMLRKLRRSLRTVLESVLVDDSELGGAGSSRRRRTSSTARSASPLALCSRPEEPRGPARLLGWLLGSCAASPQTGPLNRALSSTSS
Test: DP2/CRTH2 binding assay (radioligand binding with [3H]PGD2)
Settings: [3H]PGD2 binding, membranes of HEK293 cells expressing recombinant human DP2; read-out: hDP2
Protocol: The ability of a compound to bind to the human DP2 receptor is assessed via a radioligand binding assay using [^3H]PGD2. HEK293 cells stably expressing recombinant human DP2 are resuspended in 10 mM Hepes, 7.4 containing 1 mM DTT, lysed and centrifuged at 75,000×g to pellet the membranes. The membranes are resuspended in 10 mM Hepes, 7.4 containing 1 mM DTT and 10% glycerol to approximately 5 mg protein/ml. Membranes (2-10 μg protein/well) are incubated in 96-well plates with 1 nM [^3H]PGD2 and test compound in Assay Buffer (50 mM Hepes, 10 mM MnCl2, 1 mM EDTA, plus or minus 0.2% human serum albumin, pH 7.4) for 60 minutes at room temperature. The reactions are terminated by rapid filtration through Whatman GF/C glass fibre filter plates. The filter plates were pre-soaked in 0.33% polythylenimine for 30 minutes at room temperature then washed in Wash Buffer (50 mM Hepes, 0.5 M NaCl pH 7.4) prior to harvesting. After harvesting, the filter plates are washed 3 times with 1 ml cold Wash Buffer then dried. Scintillant is then added to the plates and the radioactivity retained on the filters is determined on a Packard TopCount (Perkin Elmer). Specific binding is determined as total radioactive binding minus non-specific binding in the presence of 10 μM PGD2. IC50s were determined using GraphPad prism analysis of drug titration curves.

`O=C(O)Cc1cncc(-c2ccc(C(=O)NCc3ccccc3)cc2CN(Cc2ccccc2)C(=O)C2CC2)c1` [Compound 5, (5-{4-Benzylcarbamoyl-2-[(N-benzyl-N-cyclopropanecarbonyl-amino)-methyl]-phenyl}-pyridin-3-yl)-acetic acid] was tested, and the IC50 was < 300 nM.

`CNC(=O)c1ccc(-c2cncc(CC(=O)O)c2)c(CN(Cc2ccccc2)C(=O)C2CC2)c1` [Compound 6, (5-{2-[(N-Benzyl-N-cyclopropanecarbonyl-amino)-methyl]-4-methylcarbamoyl-phenyl}-pyridin-3-yl)-acetic acid] gave an IC50 of 300 to 1000 nM.

`CCN(Cc1cc(C(F)(F)F)ccc1-c1cc(CC(=O)O)c[n+]([O-])c1)C(=O)OCc1ccccc1` [Compound 15, (5-{2-[(N-Benzyloxycarbonyl-N-ethyl-amino)-methyl]-4-trifluoromethyl-phenyl}-1-oxy-pyridin-3-yl)-acetic acid] was tested, and the IC50 was < 300 nM.

`CCN(Cc1cc(C(F)(F)F)ccc1-c1cncc(CC(=O)O)c1)C(=O)OCc1ccccc1` [Compound 12, (5-{2-[(N-Benzyloxycarbonyl-N-ethyl-amino)-methyl]-4-trifluoromethyl-phenyl}-pyridin-3-yl)-acetic acid] was tested, and the IC50 was < 300 nM.

`CCN(Cc1cc(C(F)(F)F)ccc1-c1cncc(CC(=O)O)c1)C(=O)COC` [Compound 34, [5-(2-{[N-Ethyl-N-(2-methoxy-acetyl)-amino]-methyl}-4-trifluoromethyl-phenyl)-pyridin-3-yl]-acetic acid] gave an IC50 of 300 to 1000 nM.

`CCN(Cc1cc(C(=O)O)ccc1-c1cncc(CC(=O)O)c1)C(=O)OCc1ccccc1` [Compound 1, 3-[(N-Benzyloxycarbonyl-N-ethyl-amino)-methyl]-4-(5-carboxymethyl-pyridin-3-yl)-benzoic acid] was tested, and the IC50 was < 300 nM.

Compound `CCN(Cc1cc(C(F)(F)F)ccc1-c1cncc(CC(=O)O)c1)C(=O)CCc1cccnc1` [Compound 36, [5-(2-{[N-Ethyl-N-(3-pyridin-3-yl-propionyl)-amino]-methyl}-4-trifluoromethyl-phenyl)-pyridin-3-yl]-acetic acid] has an IC50 of 300 to 1000 nM.

Work on `CCN(Cc1cc(C(F)(F)F)ccc1-c1cc(CC(=O)O)cnc1OC)C(C)=O` [Compound 41, (5-{2-[(N-Acetyl-N-ethyl-amino)-methyl]-4-trifluoromethyl-phenyl}-6-methoxy-pyridin-3-yl)-acetic acid] yielded an IC50 of 300 to 1000 nM.

With `CCN(Cc1cc(C(F)(F)F)ccc1-c1cncc(CC(=O)O)c1)C(=O)CCc1ccccc1` [Compound 25, [5-(2-{[N-Ethyl-N-(3-phenyl-propionyl)-amino]-methyl}-4-trifluoromethyl-phenyl)-pyridin-3-yl]-acetic acid] the IC50 was < 300 nM.

In the case of `COc1ncc(CC(=O)O)cc1-c1ccc(C(F)(F)F)cc1CN(Cc1ccccc1)C(C)=O` [Compound 28, (5-{2-[(N-Acetyl-N-benzyl-amino)-methyl]-4-trifluoromethyl-phenyl}-6-methoxy-pyridin-3-yl)-acetic acid], the IC50 is reported as < 300 nM.

Compound `CCN(Cc1cc(F)ccc1-c1cncc(CC(=O)O)c1)C(=O)C1CC1` [Compound 23, (5-{2-[(N-Cyclopropanecarbonyl-N-ethyl-amino)-methyl]-4-fluoro-phenyl}-pyridin-3-yl)-acetic acid] has an IC50 of 300 to 1000 nM.

With `CCN(Cc1cc(C(F)(F)F)ccc1-c1cc(CC(=O)O)cnc1OC)C(=O)OCc1ccccc1` [Compound 40, (5-{2-[(N-Benzyloxycarbonyl-N-ethyl-amino)-methyl]-4-trifluoromethyl-phenyl}-6-methoxy-pyridin-3-yl)-acetic acid] the IC50 was < 300 nM.

`CCOc1cc(OCC)nc(CC(=O)N(CC)Cc2cc(C(F)(F)F)ccc2-c2cncc(CC(=O)O)c2)n1` [Compound 32, {5-[2-({N-[2-(4,6-Diethoxy-pyrimidin-2-yl)-acetyl]-N-ethyl-amino}-methyl)-4-trifluoromethyl-phenyl]-pyridin-3-yl}-acetic acid] was tested, and the IC50 was < 300 nM.

For `CCOC(=O)N(CC)Cc1cc(C(F)(F)F)ccc1-c1cc(CC(=O)O)cnc1OC` [Compound 43, (5-{2-[(N-Ethoxycarbonyl-N-ethyl-amino)-methyl]-4-trifluoromethyl-phenyl}-6-methoxy-pyridin-3-yl)-acetic acid], the IC50 was < 300 nM.

With `CCN(Cc1cc(C(F)(F)F)ccc1-c1cncc(CC(=O)O)c1)C(=O)c1cc(OC)nc(OC)n1` [Compound 30] the IC50 was > 1000 nM.

`CC(C)(C)NC(=O)c1ccc(-c2cncc(CC(=O)O)c2)c(CN(Cc2ccccc2)C(=O)C2CC2)c1` [Compound 7, (5-{2-[(N-Benzyl-N-cyclopropanecarbonyl-amino)-methyl]-4-tert-butylcarbamoyl-phenyl}-pyridin-3-yl)-acetic acid] was tested, and the IC50 was 300 to 1000 nM.

`CCN(Cc1cc(C(F)(F)F)ccc1-c1cncc(CC(=O)O)c1)C(=O)Cc1ccccc1` [Compound 16, (5-{2-[(N-Ethyl-N-phenylacetyl-amino)-methyl]-4-trifluoromethyl-phenyl}-pyridin-3-yl)-acetic acid] was tested, and the IC50 was < 300 nM.

For `CCN(Cc1cc(C(F)(F)F)ccc1-c1cncc(CC(=O)O)c1)C(=O)NCc1ccccc1` [Compound 14, {5-[2-(3-Benzyl-1-ethyl-ureidomethyl)-4-trifluoromethyl-phenyl]-pyridin-3-yl}-acetic acid], the IC50 was < 300 nM.

Compound `CCN(Cc1cc(C(F)(F)F)ccc1-c1cc(CC(=O)O)cnc1Cl)C(=O)C1CC1` [Compound 11, (6-Chloro-5-{2-[(N-cyclopropanecarbonyl-N-ethyl-amino)-methyl]-4-trifluoromethyl-phenyl}-pyridin-3-yl)-acetic acid] has an IC50 of 300 to 1000 nM.

In the case of `O=C(O)Cc1cncc(-c2ccc(C(F)(F)F)cc2CN(Cc2ccccc2)C(=O)C2CC2)c1` [Compound 17, (5-{2-[(N-Benzyl-N-cyclopropanecarbonyl-amino)-methyl]-4-trifluoromethyl-phenyl}-pyridin-3-yl)-acetic acid], the IC50 is reported as < 300 nM.

In the case of `CC(=O)N(Cc1ccccc1)Cc1cc(C(F)(F)F)ccc1-c1cc(CC(=O)O)cnc1Cl` [Compound 19, (5-{2-[(N-Acetyl-N-benzyl-amino)-methyl]-4-trifluoromethyl-phenyl}-6-chloro-pyridin-3-yl)-acetic acid], the IC50 is reported as < 300 nM.

For `O=C(O)CCn1c2c(c3ccccc31)C[C@H](NS(=O)(=O)c1ccc(F)cc1)CC2` [Ramatroban, reference compound], the IC50 was 300 to 1000 nM.

For `CCOCC(=O)N(CC)Cc1cc(C(F)(F)F)ccc1-c1cncc(CC(=O)O)c1` [Compound 35, [5-(2-{[N-(2-Ethoxy-acetyl)-N-ethyl-amino]-methyl}-4-trifluoromethyl-phenyl)-pyridin-3-yl]-acetic acid], the IC50 was 300 to 1000 nM.

`CCN(Cc1cc(C(F)(F)F)ccc1-c1cc(CC(=O)O)cnc1OCC(F)(F)F)C(=O)C1CC1` [Compound 39, [5-{2-[(N-Cyclopropanecarbonyl-N-ethyl-amino)-methyl]-4-trifluoromethyl-phenyl}-6-(2,2,2-trifluoro-ethoxy)-pyridin-3-yl]-acetic acid] was tested, and the IC50 was < 300 nM.

For `CCN(Cc1cc(C(F)(F)F)ccc1-c1cncc(CC(=O)O)c1)C(=O)Cc1ccccn1` [Compound 33, [5-(2-{[N-Ethyl-N-(2-pyridin-2-yl-acetyl)-amino]-methyl}-4-trifluoromethyl-phenyl)-pyridin-3-yl]-acetic acid], the IC50 was < 300 nM.

For `CCN(Cc1cc(S)ccc1-c1cncc(CC(=O)O)c1)C(=O)C1CC1` [Compound 24, (5-{2-[(N-Cyclopropanecarbonyl-N-ethyl-amino)-methyl]-4-mercapto-phenyl}-pyridin-3-yl)-acetic acid], the IC50 was < 300 nM.

— patent publication US8049015B2 (Panmira Pharmaceuticals, LLC, priority 2008, dated 2011)
